Experimental findings from PMC6987146, “Potent inhibition of HIV replication in primary human cells by novel synthetic polyketides inspired by Aureothin” (Scientific Reports, 2020) are described below.

The IC50 is the midpoint of a concentration-inhibition curve. Usually IC90 stands for the concentration needed for an effect of 90%.

In assay [1] the test system is HIV-1MMVP899-87. In words: Inhibition of clinical isolate HIV-1M MVP899-87 in PBMCs. The assay is classed as cell-based. The note with it: PBMC. An excerpt:
(§1) Clinical isolates represented the following HIV genotypes: HIV-1MMVP899-87: HIV-type 1, Major group; HIV-1OMVP5180-91: HIV-type 1, Outlier group; HIV-2MVP10668-93: HIV-type 2; HIV-1V13-03413B: HIV-type 1, Major group/B-clade, isolate with multiple drug-resistance mutations. Depicted are the means of three independent experiments with biological triplicates (n = 3; m = 3) and standard deviations (SD).
(§2) Isolation of primary clinical HIV-isolates HIV-1MMVP899-87, HIV-1OMVP5180-91, HIV-1V13-03413B and HIV-2MVP10668-93 is described in[43]. The HIV-1 M group/B-clade isolate (HIV-1V13-03413B) was isolated from a patient with virological treatment failure. Clinical isolates were produced from HIV infected H9 cells as described.
(§3) To evaluate anti-HIV efficacies of test compounds in primary human target cells, stimulated PBMCs were seeded in 96-well plates at a density of 500,000 cells per well, different #7concentrations of the compound (serial dilutions) and virus inoculum (MOI of 0.5) added to the PBMCs and cultures incubated for 48 h. Infectious virus production was quantified by transferring 35 µl of supernatant from the PBMC cultures to LC5-RIC cells, seeded in black 96-well plates one day earlier. LC5-RIC cultures were then incubated for 72 h and analysed for DsRed1 reporter expression and anti-HIV activity calculated as described for the EASY-HIT assay.

Assay [2] relates to HIV-1OMVP5180-91. In words: Inhibition of clinical isolate HIV-1O MVP5180-91 in PBMCs. The note with it: PBMC, HIV-type 1, Outlier group. The format is cell-based.
Description: as §1, §2, §3

Assay [3] deals with HIV-1V13-03413B. Kind of assay: Inhibition of multi-drug-resistant clinical isolate HIV-1 V13-03413B in PBMCs. The assay is classed as cell-based, HIV-type 1. The note with it: Human immunodeficiency virus 1, PBMC.
Description: as §1, §2, §3

For assay [4], the system named is PBMC. In words: CellTiter-Glo 2.0 cell viability assay in PBMC. The format is cell-based, human. The note with it: PBMC. As for the experimental part:
The following assays were used to profile cell safety of compound treatment in HIV-exposed cultures (LC5-RIC or PBMC): (1) CellTox^TM Green Cytotoxicity Assay, Promega, measures binding of a fluorescent dye to DNA of cells with impaired membrane integrity; (2) CellTiter-Glo® 2.0 Assay, Promega, which measures the amount of ATP in viable cells after lysis using an assay with luminescence read-out. Cells were plated into black 96-well plates followed by overnight incubation at 37 °C, 5% CO2. Compounds dissolved in DMSO were screened at multiple concentrations from 0.6 to 10,000 nM at a final DMSO concentration of 0.04% followed by additional 48 h incubation. Both assays were performed according to manufacturer’s recommendations and consecutively in the above mentioned order. Cells were washed once with PBS between the assays.
For orientation: ATP-based viability assays read luminescence as a measure of living cells.

Assay [5] concerns HIV Gag protein (Gag-p24). Kind of assay: Intracellular Gag by p24 ELISA and western blot in LC5-RIC cells. The assay is classed as cell-based. The note with it: HIV-1LAI, 48 h. As for the experimental part: LC5-RIC cells were plated, treated with compounds and inoculated with virus as described for Alu-PCR above. Cells were harvested, washed with PBS and incubated in 200 µl of PBS + 5% Triton X-100 for 5 min at room temperature. Cell lysates were centrifuged for 5 min at 400 g, supernatants collected, diluted 1:10,000 and Gag-p24 was detected by p24 Antigen Capture Assay (ABLinc) according to the manufacturer’s protocol.
Western blot analysis for Gag-p24 and GAPDH was performed as described in[48], using the primary antibodies anti-hGAPDH (ThermoFisher Scientific) and anti-HIV-p24 (Calbiochem) as well as the secondary anti-mouse-peroxidase antibody (Jackson ImmunoResearch), all diluted 1:10,000. Bands were visualized by enhanced chemiluminescence and detected by Fusion FX Chemiluminescence detector. Resulting blot images were processed with Fusion FX Software (adjusting brightness and contrast) and Microsoft PowerPoint (labelling and cropping).

Assay [6] deals with T1, recombinant HIV-1 Protease (Human immunodeficiency virus type 1 group M subtype B, UniProt P04585).
T1 construct: 100 ng recombinant HIV-1 Protease protein (Abcam) was incubated with compounds; purchased Abcam
Kind of assay: HIV Protease Activity Assay (fluorogenic substrate). The format is biochemical. The note with it: 10 µM. The protocol: HIV Protease Activity Assay. 100 ng recombinant HIV-1 Protease protein (Abcam) was incubated with compounds diluted in HIV Protease Activity Assay Buffer (0.1 M sodium acetate, 1.0 M sodium chloride, 1.0 mM ethylenediaminetetraacetic acid (EDTA), 1.0 mM dithiothreitol (DTT), 10% dimethyl sulfoxide (DMSO), 1 mg/ml bovine serum albumin (BSA), pH 7.4) for 1 h at room temperature in the dark. After the designated incubation time the mixtures were added to a 2.5 µM solution of HIV Protease Substrate 1 (Sigma-Aldrich) in HIV Protease Activity Assay Buffer prepared in black 96-well plates. The substrate harbours the fluorophore EDANS (5-(2-aminoethylamino)-1-naphthalene sulfonate) and the acceptor chromophore DABCYL (4’-dimethylaminoazobenzene-4-carboxylate) on opposite sides of the cleavage site (Tyr-Pro). Cleavage of the substrate by the HIV-1 protease results in separation of DABCYL and EDANS, eliminating the quenching effects on EDANS fluorescence at 490 nm. After an additional incubation time of 20 min at 37 °C the increase in fluorescence was measured using a fluorescence microplate reader at an excitation filter wavelength of 340 nm and an emission filter wavelength of 490 nm. Saquinavir was used as reference compound.

As to `COc1oc(C2C/C(=C/C(C)=C/c3ccc(C(F)(F)F)cc3)CO2)c(C)c(=O)c1C` (stereo not drawn) [compound #7], the IC50 in assay [1] (read-out: IC50 value, HIV-1M MVP899-87, HIV-type 1, Major group) amounted to 4.11 nM; in assay [2], 2.88 nM; in assay [3] (read-out: IC50 value, HIV-1 V13-03413B) it was 4.2 nM. In addition, the IC90 in assay [1] (read-out: IC90 value, HIV-1M MVP899-87, HIV-type 1, Major group) stood at 12.3 nM; in assay [2] it was 8.65 nM; in assay [3] (read-out: IC90 value, HIV-1 V13-03413B) it was 10.5 nM. Also, the “selectivity index (CC50/IC50)” value in assay [4] was above 970. Further, the “intracellular Gag levels” value in assay [5] is reported as “strongly suppressed production of Gag”. Moreover, the “inhibitory effect on Protease activity” value in assay [6] is on record as “no inhibitory effects”.
